According to patent US11332459B2 (TEIJIN PHARMA LIMITED, priority 2017, dated 2022):
pIC50: −log10 of the molar value. Where a name gives a salt, the structure may show the parent alone.

Target: T1, human TRPC6 (Homo sapiens, UniProt Q9Y210)
T1 construct: expressed in transfected cells
T1 sequence (Q9Y210 1-931): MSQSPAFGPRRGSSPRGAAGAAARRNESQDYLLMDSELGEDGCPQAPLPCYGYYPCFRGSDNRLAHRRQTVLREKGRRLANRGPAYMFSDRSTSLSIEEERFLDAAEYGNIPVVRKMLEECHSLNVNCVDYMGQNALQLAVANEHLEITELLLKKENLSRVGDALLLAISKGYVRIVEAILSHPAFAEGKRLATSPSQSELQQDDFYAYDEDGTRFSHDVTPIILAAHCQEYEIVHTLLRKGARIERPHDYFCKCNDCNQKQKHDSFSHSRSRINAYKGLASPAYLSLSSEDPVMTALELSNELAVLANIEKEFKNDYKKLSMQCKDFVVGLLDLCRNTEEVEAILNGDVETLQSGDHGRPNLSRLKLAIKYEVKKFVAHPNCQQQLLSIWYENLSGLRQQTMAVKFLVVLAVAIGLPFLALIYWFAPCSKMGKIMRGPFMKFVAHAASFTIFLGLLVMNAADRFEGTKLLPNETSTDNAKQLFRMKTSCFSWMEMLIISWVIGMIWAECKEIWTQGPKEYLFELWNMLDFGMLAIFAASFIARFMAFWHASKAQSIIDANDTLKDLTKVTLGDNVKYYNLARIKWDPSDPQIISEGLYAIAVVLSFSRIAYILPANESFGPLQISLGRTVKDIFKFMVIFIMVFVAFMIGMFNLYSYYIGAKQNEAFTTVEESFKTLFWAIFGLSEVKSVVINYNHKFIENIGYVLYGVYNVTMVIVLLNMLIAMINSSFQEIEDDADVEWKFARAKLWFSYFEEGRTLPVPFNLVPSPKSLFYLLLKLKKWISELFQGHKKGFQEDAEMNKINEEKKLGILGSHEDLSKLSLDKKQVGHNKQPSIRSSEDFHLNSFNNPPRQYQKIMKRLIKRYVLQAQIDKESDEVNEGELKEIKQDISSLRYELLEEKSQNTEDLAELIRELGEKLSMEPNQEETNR
Test: TRPC6 calcium flux assay (FLIPR, OAG-stimulated calcium influx)
Assay type: cell-based
Settings: HEK293 cells stably transfected with human TRPC6, read-out: hTRPC6 Potency
In short: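 HEK293 cells stably expressing human TRPC6, loaded with calcium dye 90–120 min at RT, then given compound for 25 min before OAG (50 uM final, 0.5% DMSO) in HEPES buffer pH 7.2 with 2 mM CaCl2. Background-subtracted FLIPR peak over 180 s normalized to OAG vs buffer; IC50 from dose plot.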

SMILES	pIC50
N#Cc1ccc(Cn2c(N3C[C@@H]4OCCN[C@@H]4C3)nc3ccccc32)nc1 [Example 98, 6-((2-((4aR,7aS)-hexahydropyrrolo[3,4-b][1,4]oxazin-6(2H)-yl)-1H-benzo[d]imidazol-1-yl)methyl)nicotinonitrile hydrochloride]	< 5.43
CC(F)(F)c1ccc(Cn2c(N3CC[C@@H](F)[C@H](N)C3)nc3cc(F)c(F)cc32)cc1 [Example 344, (3R,4R)-1-(1-(4-(1,1-difluoroethyl)benzyl)-5,6-difluoro-1H-benzimidazol-2-yl)-4-fluoro-3-piperidinamine]	7.07
Cc1ccc(Cn2c(N3CCC[C@@H](N)C3)nc3ccccc32)cc1 [Example 386, (R)-1-(1-(4-methylbenzyl)-1H-benzo[d]imidazol-2-yl)piperidin-3-amine]	5.37
C[C@H](c1ccc(C#N)cn1)n1c(N2CC[C@H]3OCCN[C@@H]3C2)nc2c(F)cc(F)cc21 [Example 267, 6-((1R)-1-(4,6-difluoro-2-((4aR,8aR)-hexahydro-2H-pyrido[4,3-b][1,4]oxazin-6(5H)-yl)-1H-benzimidazol-1-yl)ethyl)-3-pyridinecarbonitrile]	< 4.30
N#Cc1ccc(Cn2c(N3CC[C@@H](F)[C@H](N)C3)nc3cc(C(F)(F)F)cnc32)nc1 [Example 519, 6-((2-((3R,4R)-3-amino-4-fluoropiperidin-1-yl)-6-(trifluoromethyl)-3H-imidazo[4,5-b]pyridin-3-yl)methyl)nicotinonitrile]	6.32
N[C@@H]1CN(c2nc3cc(F)c(F)cc3n2CC(=O)N2CC(n3cncn3)C2)CC[C@H]1F [Example 641, 1-(3-(1H-1,2,4-triazol-1-yl)azetidin-1-yl)-2-(2-((3R,4R)-3-amino-4-fluoropiperidin-1-yl)-5,6-difluoro-1H-benzo[d]imidazol-1-yl)ethanone]	5.89
N[C@@H]1CN(c2nc3cc(F)c(F)cc3n2Cc2noc(C3CC3)n2)CC[C@H]1F [Example 578, (3R,4R)-1-(1-((5-cyclopropyl-1,2,4-oxadiazol-3-yl)methyl)-5,6-difluoro-1H-benzo[d]imidazol-2-yl)-4-fluoropiperidin-3-amine]	6.60
CN[C@H]1CCCN(c2nc3ccccc3n2CC(=O)N2CCC2)C1 [Example 266, 1-(1-azetidinyl)-2-(2-((3S)-3-(methylamino)-1-piperidinyl)-1H-benzimidazol-1-yl)ethanone]	4.80
N[C@@H]1CN(c2nc3cc(F)c(F)cc3n2CC(=O)N(CC2CCCO2)C2CCS(=O)(=O)C2)CC[C@H]1F (stereo partly drawn) [Example 541, 2-(2-((3R,4R)-3-amino-4-fluoropiperidin-1-yl)-5,6-difluoro-1H-benzo[d]imidazol-1-yl)-N-(1,1-dioxidotetrahydrothiophen-3-yl)-N-((tetrahydrofuran-2-yl)methyl)acetamide]	< 5.43
C[C@@H](c1cc(Cl)ccc1Cl)n1c(N2CC[C@@H](F)[C@H](N)C2)nc2cc(F)c(F)cc21 [Example 329, (3R,4R)-1-(1-((1S)-1-(2,5-dichlorophenyl)ethyl)-5,6-difluoro-1H-benzimidazol-2-yl)-4-fluoro-3-piperidinamine]	< 5.43
CC(C)N(C)C(=O)C1CCN(C(=O)Cn2c(N3CC[C@@H](F)[C@H](N)C3)nc3cc(F)c(F)cc32)CC1 [Example 542, 1-(2-(2-((3R,4R)-3-amino-4-fluoropiperidin-1-yl)-5,6-difluoro-1H-benzo[d]imidazol-1-yl)acetyl)-N-isopropyl-N-methylpiperidine-4-carboxamide]	< 5.43
N[C@@H]1CCCN(c2nc3ccccc3n2Cc2ccc(F)cc2F)C1 [Example 389, (R)-1-(1-(2,4-difluorobenzyl)-1H-benzo[d]imidazol-2-yl)piperidin-3-amine]	5.34
CS(=O)(=O)CC1CCN(C(=O)Cn2c(N3CC[C@@H](F)[C@H](N)C3)nc3cc(F)c(F)cc32)C1 (stereo partly drawn) [Example 645, 2-(2-((3R,4R)-3-amino-4-fluoropiperidin-1-yl)-5,6-difluoro-1H-benzo[d]imidazol-1-yl)-1-(3-((methylsulfonyl)methyl)pyrrolidin-1-yl)ethanone]	5.64
Cn1ncc2cccc(Cn3c(N4CC[C@@H](F)[C@H](N)C4)nc4cc(F)c(F)cc43)c21 [Example 264, (3R,4R)-1-(5,6-difluoro-1-((1-methyl-1H-indazol-7-yl)methyl)-1H-benzimidazol-2-yl)-4-fluoro-3-piperidinamine]	6.66
N#Cc1ccc(Cn2c(N3CC[C@](F)(CN)C3)nc3ccccc32)cc1 [Example 175, (S)-4-((2-(3-(aminomethyl)-3-fluoropyrrolidin-1-yl)-1H-benzo[d]imidazol-1-yl)methyl)benzonitrile 2,2,2-trifluoroacetate]	5.77
N[C@@H]1CCCN(c2nc3ccccc3n2Cc2cccc(Cl)c2)C1 [Example 378, (R)-1-(1-(3-chlorobenzyl)-1H-benzo[d]imidazol-2-yl)piperidin-3-amine]	5.51

Compounds with a higher pIC50, results first:

pIC50	SMILES
7.15	N#Cc1ccc2c(c1)nc(N1CC[C@@H](F)[C@H](N)C1)n2Cc1ncc(Cl)cn1 [Example 198]
7.21	N#Cc1ccc(Cn2c(N3CCC[C@@](N)(CO)C3)nc3ccccc32)nc1 [Example 104, (S)-6-((2-(3-amino-3-(hydroxymethyl)piperidin-1-yl)-1H-benzo[d]imidazol-1-yl)methyl)nicotinonitrile]
7.29	C[C@H](c1ccc(C#N)cn1)n1c(N2CC[C@@H](F)[C@H](N)C2)nc2ccc(C#N)cc21 [Example 223, 2-((3R,4R)-3-amino-4-fluoropiperidin-1-yl)-1-((R)-1-(5-cyanopyridin-2-yl)ethyl)-1H-benzo[d]imidazole-6-carbonitrile hydrochloride]
7.38	N#Cc1ccc(Cn2c(N3CC[C@@H]4OCCN[C@H]4C3)nc3ccccc32)nc1 [Example 132, 6-((2-((4aS,8aS)-hexahydro-2H-pyrido[4,3-b][1,4]oxazin-6(5H)-yl)-1H-benzimidazol-1-yl)methyl)-3-pyridinecarbonitrile]
7.49	CN(C)C(=O)Cn1c(N2CC[C@@H](F)[C@H](N)C2)nc2c(F)cc(F)cc21 [Example 565, 2-(2-((3R,4R)-3-amino-4-fluoropiperidin-1-yl)-4,6-difluoro-1H-benzo[d]imidazol-1-yl)-N,N-dimethylacetamide]
8.06	N[C@H]1CCCN(c2nc3ccccc3n2Cc2ccc(-c3ncon3)cc2)C1 [Example 369, (S)-1-(1-(4-(1,2,4-oxadiazol-3-yl)benzyl)-1H-benzo[d]imidazol-2-yl)piperidin-3-amine]
9.19	N#Cc1ccc(Cn2c(N3CCC(F)(F)[C@H](N)C3)nc3ccc(F)cc32)nc1 [Example 88, (R)-6-((2-(3-amino-4,4-difluoropiperidin-1-yl)-6-fluoro-1H-benzo[d]imidazol-1-yl)methyl)nicotinonitrile]
9.30	N#Cc1ccc(Cn2c(N3CC[C@H](F)[C@H](N)C3)nc3cc(Cl)c(Cl)cc32)nc1 [Example 82, 6-((2-((3R,4S)-3-amino-4-fluoropiperidin-1-yl)-5,6-dichloro-1H-benzo[d]imidazol-1-yl)methyl)nicotinonitrile hydrochloride]
9.30	N#Cc1ccc(Cn2c(N3CC[C@@H](F)[C@H](N)C3)nc3c(F)cc(F)cc32)cc1 [Example 157, 4-((2-((3R,4R)-3-amino-4-fluoro-1-piperidinyl)-4,6-difluoro-1H-benzimidazol-1-yl)methyl)benzonitrile]
